Reference: US7408065B2, “P2X7 receptor antagonists and their use” (AstraZeneca AB, priority 2003, dated 2008)
Counter-ions that a name gives are not always drawn.

melting point | Structure (SMILES)
120 °C (dec.) | O=C(CC1CCCCC1)Nc1c(Cl)ccc2nc(N3C[C@@H]4C[C@H]3CN4)ccc12 (as salt: acetate) [Example 13, N-[6-Chloro-2-[(1S,4S)-2,5-diazabicyclo[2.2.1]hept-2-yl]-5-quinolinyl]-cyclohexaneacetamide, Acetate]
154 to 155 °C | Cc1ccc2nc(N3CC[C@H](N)C3)ccc2c1C(=O)NCC1CCCCC1 (as salt: acetate) [Example 58, 2-[(3S)-3-Amino-1-pyrrolidinyl]-N-(cyclohexylmethyl)-6-methyl-5-quinolinecarboxamide, Acetate]
185 to 190 °C | O=C(O)CN1CCN(c2ccc3c(C(=O)NCC4CCCCC4)c(Cl)ccc3n2)CC1 (as salt: acetate) [Example 73, 4-[6-Chloro-5-[[(cyclohexylmethyl)amino]carbonyl]-2-quinolinyl]-1-piperazineacetic acid, Acetate]
170 to 175 °C | O=C(CC1CCCCC1)Nc1c(Cl)ccc2nc(CC3CCNCC3)ccc12 (as salt: hydrochloride)
270 °C (dec.) | CN1CCN(c2ccc3c(NC(=O)CC4CCCCC4)c(Cl)ccc3n2)CC1 (as salt: hydrochloride)
152 to 155 °C | CCNCCCc1ccc2c(NC(=O)CC3CCCCC3)c(Cl)ccc2n1 (as salt: hydrochloride)
> 250 °C | O=C(CC1CCCCC1)Nc1c(Cl)ccc2nc(N3CCNCC3)ccc12 (as salt: hydrochloride)
219 to 221 °C | CCCCNCCCc1ccc2c(NC(=O)CC3CCCCC3)c(Cl)ccc2n1 (as salt: hydrochloride)
215 to 218 °C | CNCCCN(C)c1ccc2c(NC(=O)C3(C4CCCCC4)CC3)c(Cl)ccc2n1 (as salt: hydrochloride)
210 to 213 °C | Cc1ccc2c(C(=O)NCC3CCCCC3)c(Cl)ccc2n1 (as salt: hydrochloride)
305 to 306 °C | O=C(NCC1CCCCC1)c1c(Cl)ccc2nc(N3CCNCC3)ccc12 (as salt: hydrochloride)
250 °C (dec.) | CNCCCN(C)c1ccc2c(NC(=O)CC3CCC(C(F)(F)F)CC3)c(Cl)ccc2n1 (stereo not drawn) (as salt: hydrochloride)
231 to 233 °C | CNCCCN(C)c1ccc2c(NC(=O)CC3CCCCC3)c(Cl)ccc2n1 (as salt: hydrochloride) [Example 3, N-[6-Chloro-2-[methyl[3-(methylamino)propyl]amino]-5-quinolinyl]-cyclohexaneacetamide, Dihydrochloride]
193 to 198 °C | O=C(CC1CCCCC1)Nc1c(Cl)ccc2nc(N[C@@H]3CCNC3)ccc12 (as salt: hydrochloride) [Example 14, N-[6-Chloro-2-[(3R)-3-pyrrlidinylamino]-5-quinolinyl]-cyclohexaneacetamide, Dihydrochloride]
231 to 234 °C | CCNCCCc1ccc2c(NC(=O)CC3CCCCC3)c(C)ccc2n1 (as salt: hydrochloride) [Example 15, N-[2-[3-(Ethylamino)propyl]-6-methyl-5-quinolinyl]-cyclohexaneacetamide, Dihydrochloride]
238 to 240 °C | O=C(CC1CCCCC1)Nc1c(Cl)ccc2nc(NCCNCCO)ccc12 (as salt: hydrochloride) [Example 17, N-[6-Chloro-2-[[2-[(2-hydroxyethyl)amino]ethyl]amino]-5-quinolinyl]-cyclohexaneacetamide, Dihydrochloride]
211 to 220 °C | O=C(NCC1CCCCC1)c1c(Cl)ccc2nc(N3CC[C@H](NCCO)C3)ccc12 (as salt: hydrochloride) [Example 50, 6-Chloro-N-(cyclohexylmethyl)-2-[(3S)-3-[(2-hydroxyethyl)amino]-1-pyrrolidinyl]-5-quinolinecarboxamide, Hydrochloride]
320 to 326 °C | O=C(O)CN1CCN(c2ccc3c(NC(=O)CC4CCCCC4)c(Cl)ccc3n2)CC1 (as salt: salt)
320 to 324 °C | O=C(NCC1CCCCC1)c1c(Cl)ccc2nc(N3CCC(C(=O)O)CC3)ccc12 (as salt: sodium) [Example 74, 1-[6-Chloro-5-[[(cyclohexylmethyl)amino]carbonyl]-2-quinolinyl]-4-piperidinecarboxylic Acid, Sodium Salt]
140 to 145 °C | O=C(CC1CCCCC1)Nc1c(Cl)ccc2nc(CCCc3nnn[nH]3)ccc12 (as salt: trifluoroacetate)
168 to 170 °C | O=C(NCC1CCCCC1)c1c(Cl)ccc2nc(N3CCC[C@H]3C(=O)O)ccc12 (as salt: trifluoroacetate)
79 to 83 °C | O=C(O)CC1CCN(c2ccc3c(C(=O)NCC4CCCCC4)c(Cl)ccc3n2)CC1 (as salt: trifluoroacetate)
170 to 173 °C | O=C(CC1CCCCC1)Nc1c(Cl)ccc2nc(N3CCC[C@@H]3C(=O)O)ccc12 (as salt: trifluoroacetate) [Example 65, 1-[6-Chloro-5-[(cyclohexylacetyl)amino]-2-quinolinyl]-D-proline, Trifluoroacetate]

melting point | Structure (SMILES)
155 to 159 °C | O=C(CC1CCCCC1)Nc1c(Cl)ccc2nc(NC[C@@H](O)CO)ccc12 [Example 6, N-[6-Chloro-2-[[(2R)-2,3-dihydroxypropyl]amino]-5-quinolinyl]-cyclohexaneacetamide]
248 to 250 °C | O=C(O)CCCNc1ccc2c(NC(=O)CC3CCCCC3)c(Cl)ccc2n1 [Example 7, 4-[[6-Chlor-5-[(cyclohexylacetyl)amino]-2-quinolinyl]amino]-butanoic Acid]
186 to 190 °C | O=C(CC1CCC(C(F)(F)F)CC1)Nc1c(Cl)ccc2nc(N3CCNCC3)ccc12 (stereo not drawn) [Example 9, N-[6-Chloro-2-(1-piperazinyl)-5-quinolinyl]-4-(trifluoromethyl)-cyclohexaneacetamide]
186 to 188 °C | O=C(CC1CCCCC1)Nc1c(Cl)ccc2nc(N3CCCNCC3)ccc12 [Example 10, N-[6-Chlor-2-(hexahydro-1H-1,4-diazepin-1-yl)-5-quinolinyl]-cyclohexaneacetamide]
250 to 252 °C | C[C@@H]1CN(c2ccc3c(NC(=O)CC4CCCCC4)c(Cl)ccc3n2)C[C@H](C)N1 [Example 11]
183 to 184 °C | O=C(CC1CCCCC1)Nc1cccc2ncccc12 [Example 18, N-5-Quinolinyl-cyclohexaneacetamide]
133 to 135 °C | CC1(CC(=O)Nc2cccc3ncccc23)CCCCC1 [Example 19, 1-Methyl-N-5-quinolinyl-cyclohexaneacetamide]
135 to 138 °C | O=C(CCC1CCCC1)Nc1cccc2ncccc12 [Example 21, N-5-Quinolinyl-cyclopentanepropanamide]
159 to 163 °C | O=C(CC1CCCCC1)Nc1c(Cl)ccc2nc(CCCNCCCO)ccc12 [Example 22, N-[6-Chloro-2-[3-[(3-hydroxypropyl)amino]propyl]-5-quinolinyl]-cyclohexaneacetamide]
121 to 130 °C | NCCCc1ccc2c(NC(=O)CC3CCCCC3)c(Cl)ccc2n1 [Example 23, N-[2-(3-Aminopropyl)-6-chloro-5-quinolinyl]-cyclohexaneacetamide]
219 °C | O=C(Nc1c(Cl)ccc2nc(N3CCNCC3)ccc12)C1(C2CCCCC2)CC1 [Example 27, N-[6-Chloro-2-(1-piperazinyl)-5-quinolinyl]-1-cyclohexyl-cyclopropanecarboxamide]
219 to 221 °C | O=C(CC1CCCCC1)Nc1c(Cl)ccc2nc(N3CC[C@H](O)C3)ccc12 [Example 29, N-[6-Chloro-2-[(3S)-3-hydroxy-1-pyrrolidinyl]-5-quinolinyl]-cyclohexaneacetamide]
201 to 206 °C | N[C@@H]1CCN(c2ccc3c(NC(=O)CC4CCCCC4)c(Cl)ccc3n2)C1 [Example 30, N-[2-[(3R)-3-Amino-1-pyrrolidinyl]-6-chloro-5-quinolinyl]-cyclohexaneacetamide]
219 to 226 °C | N[C@H]1CCN(c2ccc3c(NC(=O)CC4CCCCC4)c(Cl)ccc3n2)C1 [Example 31, N-[2-[(3S)-3-Amino-1-pyrrolidinyl]-6-chloro-5-quinolinyl]-cyclohexaneacetamide]
333 to 334 °C | NC1CCN(c2ccc3c(NC(=O)CC4CCCCC4)c(Cl)ccc3n2)CC1 [Example 32, N-[2-(4-Amino-1-piperidinyl)-6-chloro-5-quinolinyl]-cyclohexaneacetamide]
197 to 199 °C | O=C(CC1CCCCC1)Nc1c(Cl)ccc2nc(N3CC[C@@H](NCCO)C3)ccc12 [Example 34, N-[6-Chloro-2-[(3R)-3-[(2-hydroxyethyl)amino]-1-pyrrolidinyl]-5-quinolinyl]-cyclohexaneacetamide]
164 to 165 °C | CN[C@H]1CCN(c2ccc3c(NC(=O)CC4CCCCC4)c(Cl)ccc3n2)C1 [Example 35, N-[6-Chloro-2-[(3S)-3-(methylamino)-1-pyrrolidinyl]-5-quinolinyl]-cyclohexaneacetamide]
194 to 196 °C | O=C(CC1CCCCC1)Nc1c(Cl)ccc2nc(N3CC[C@H](NCCO)C3)ccc12 [Example 36, N-[6-Chloro-2-[(3S)-3-[(2-hydroxyethyl)amino]-1-pyrrolidinyl]-5-quinolinyl]-cyclohexaneacetamide]
223 to 224 °C | Cc1ccc2nc(N3CC[C@H](N)C3)ccc2c1NC(=O)CC1CCCCC1 [Example 38, N-[2-[(3S)-3-Amino-1-pyrrolidinyl]-6-methyl-5-quinolinyl]-cyclohexaneacetamide]
222 to 225 °C (dec.) | O=C(O)CNc1ccc2c(NC(=O)CC3CCCCC3)c(Cl)ccc2n1 [Example 40, N-[6-Chloro-5-[(cyclohexylacetyl)amino]-2-quinolinyl]-glycine]
222 to 224 °C (dec.) | O=C(O)CCNc1ccc2c(NC(=O)CC3CCCCC3)c(Cl)ccc2n1 [Example 41, N-[6-Chloro-5-[(cyclohexylacetyl)amino]-2-quinolinyl]-β-alanine]
206 to 208 °C | O=C(NCC1CCCCC1)c1c(Cl)ccc2nc(N3CC(O)C3)ccc12 [Example 53, 6-Chloro-N-(cyclohexylmethyl)-2-(3-hydroxy-1-azetidinyl)-5-quinolinecarboxamide]
